Measured values as given in patent US11702404B2, “GLP-1R modulating compounds” (priority 2019, dated 2023).
Read-outs that look alike come from different tables or passages of the source.

Experiments:
GLP-1R = GLP-1R (Homo sapiens, UniProt P43220); assay: GLP-1R activation: cAMP increase in CHO cells stably expressing GLP-1R; format: cell-based; settings: read-out: EC50
[1] = Microsomal stability, human liver microsomes (predicted hepatic clearance); settings: predicted from in vitro microsomal stability data
[2] = cAMP increase, CHO cells stably expressing GLP-1R, 10 point dose response, 30 minutes incubation

GLP-1R, sequence (P43220 24-463): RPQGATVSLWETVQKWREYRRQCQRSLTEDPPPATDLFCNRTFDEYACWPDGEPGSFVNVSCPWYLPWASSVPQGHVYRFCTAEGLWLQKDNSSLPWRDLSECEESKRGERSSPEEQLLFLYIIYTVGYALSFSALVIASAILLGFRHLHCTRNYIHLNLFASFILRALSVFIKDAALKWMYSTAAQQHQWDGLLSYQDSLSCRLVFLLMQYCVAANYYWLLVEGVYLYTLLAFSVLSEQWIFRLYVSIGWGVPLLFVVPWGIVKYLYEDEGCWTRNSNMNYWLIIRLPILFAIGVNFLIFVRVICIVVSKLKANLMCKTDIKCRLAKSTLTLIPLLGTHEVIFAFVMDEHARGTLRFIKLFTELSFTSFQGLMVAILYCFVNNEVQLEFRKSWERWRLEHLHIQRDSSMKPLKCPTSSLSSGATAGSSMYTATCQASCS

Structure (SMILES)	EC50 (GLP-1R; [2]) [nM]	Predicted Hepatic Clearance (Pred. Cl.) [1] [mL/min/kg]	EC50 (GLP-1R) [nM]
CC(C)(Cn1c(Cc2cc(F)c(-c3cccc(OCc4ccc(C#N)cc4F)n3)cc2F)nc2ccc(C(=O)O)cc21)OC(F)F [Example 721]	1.31	7.83	
N#Cc1ccc(COc2ccc(F)c(-c3ccc(Cc4nc5ccc(C(=O)O)cc5n4C[C@@H]4CCO4)c(F)c3)n2)c(F)c1 [Example 797]	0.27	7.17	
COCCn1c(Cc2cc(F)c(-c3cccc(OCc4ccc(C(F)(F)F)cn4)n3)cc2F)nc2ccc(C(=O)O)cc21 [Example 868]	5.48	3.5	
COCCn1c(Cc2ccc(-c3cccc(OCc4ccc(C#N)cc4F)n3)cc2C#CCCO)nc2ccc(C(=O)O)cc21 [Example 255, 2-(4-(6-((4-cyano-2-fluorobenzyl)oxy)pyridin-2-yl)-2-(4-hydroxybut-1-yn-1-yl)benzyl)-1-(2-methoxyethyl)-1H-benzo[d]imidazole-6-carboxylic acid]	3.31	8.17	
N#Cc1ccc(COc2ccc(F)c(-c3cc(F)c(Cc4nc5ccc(C(=O)O)cc5n4CCOC4CC4)cc3F)n2)c(F)c1 [Example 899]	2.26	4	
COCCn1c(Cc2ccc(-c3cccc(OCc4ccc(C#N)c5ccoc45)n3)cc2F)nc2ccc(C(=O)O)cc21 [Example 135, 2-(4-(6-((4-cyanobenzofuran-7-yl)methoxy)pyridin-2-yl)-2-fluorobenzyl)-1-(2-methoxyethyl)-1H-benzo[d]imidazole-6-carboxylic acid]	1.76	<1.83	
CC1(Cn2c(Cc3ccc(-c4cccc(OCc5ccc(C#N)cc5F)n4)cc3F)nc3ccc(C(=O)O)cc32)CC1 [Example 9, 2-(4-(6-((4-cyano-2-fluorobenzyl)oxy)pyridin-2-yl)-2-fluorobenzyl)-1-((1-methylcyclopropyl)methyl)-1H-benzo[d]imidazole-6-carboxylic acid]	1.75	<1.83	
COCCn1c(Cc2c(F)cc(-c3cccnc3OCc3ccc(C#N)cc3OC)cc2F)nc2ccc(C(=O)O)cc21 [Example 118, 2-(4-(2-((4-cyano-2-methoxybenzyl)oxy)pyridin-3-yl)-2,6-difluorobenzyl)-1-(2-methoxyethyl)-1H-benzo[d]imidazole-6-carboxylic acid]	6.01	12	
COc1cc(Cl)ccc1COc1cccc(-c2cc(F)c(Cc3nc4ccc(C(=O)O)cc4n3CC3(CC#N)CC3)cc2F)n1 [Example 443, 2-(4-(6-((4-chloro-2-methoxybenzyl)oxy)pyridin-2-yl)-2,5-difluorobenzyl)-1-((1-(cyanomethyl)cyclopropyl)methyl)-1H-benzo[d]imidazole-6-carboxylic acid]	0.15	11	
CC1(Cn2c(Cc3cc(F)c(-c4cccc(OCc5ccc(C#N)cc5F)n4)cc3F)nc3ccc(C(=O)O)cc32)CCOCC1 [Example 839]	7.04	5.83	
N#Cc1cc(F)c(COc2cccc(-c3ccc(Cc4nc5c(F)cc(C(=O)O)cc5n4C[C@@H]4CCO4)cc3F)n2)cc1F [Example 776]	26.9	3.17	
N#Cc1ccc(COc2cccc(-c3cc(F)c(Cc4nc5ccc(C(=O)O)cc5n4[C@@H]4CCC(F)(F)C4)cc3F)n2)c(F)c1 [Example 699]	83.9	4.67	
CC(C)(CF)Cn1c(Cc2ccc(-c3cccc(OCc4ccc(C#N)cc4F)n3)cc2F)nc2ccc(C(=O)NS(=O)(=O)C3CC3)cc21 [Example 51, 2-(4-(6-((4-cyano-2-fluorobenzyl)oxy)pyridin-2-yl)-2-fluorobenzyl)-N-(cyclopropylsulfonyl)-1-(3-fluoro-2,2-dimethylpropyl)-1H-benzo[d]imidazole-6-carboxamide]	63	<1.83	
COCCn1c(Cc2ccc(-c3cccc(OCc4ccc(Cl)cn4)n3)cc2F)nc2ccc(C(=O)O)cc21 [Example 693]	15.9	9.67	
COCCn1c(Cc2ccc(-c3cccc(OCc4ccc(C#N)cc4F)n3)cc2F)nc2ccc(C(=O)O)cc21 [Example 2, 2-(4-(6-((4-cyano-2-fluorobenzyl)oxy)pyridin-2-yl)-2-fluorobenzyl)-1-(2-methoxyethyl)-1H-benzo[d]imidazole-6-carboxylic acid]	2.3	2.33	
N#Cc1ccc(COc2cccc(-c3cc(F)c(Cc4nc5ccc(C(=O)O)cc5n4CC45COC(C4)C5)cc3F)n2)c(F)c1 [Example 624]	1.68	5	

Structure (SMILES)	EC50 (GLP-1R; [2]) [nM]	Predicted Hepatic Clearance (Pred. Cl.) [1] [mL/min/kg]	EC50 (GLP-1R) [nM]
N#Cc1ccc(COc2nc(-c3cc(F)c(Cc4nc5ccc(C(=O)O)cc5n4CC4(CF)CC4)cc3F)ncc2F)c(F)c1 [Example 161, 2-(4-(4-((4-cyano-2-fluorobenzyl)oxy)-5-fluoropyrimidin-2-yl)-2,5-difluorobenzyl)-1-((1-(fluoromethyl)cyclopropyl)methyl)-1H-benzo[d]imidazole-6-carboxylic acid]	1	3.83	
O=C(O)c1ccc2nc(Cc3cc(F)c(-c4cccc(OCc5ccc(Cl)cc5)n4)cc3F)n(Cc3ncco3)c2c1 [Example 819]	0.86	3.17	
CO[C@@H](C)Cn1c(Cc2ccc(-c3cccc(OCc4ccc(C#N)cc4F)n3)cc2F)nc2ccc(C(=O)O)cc21 [Example 331, (S)-2-(4-(6-((4-cyano-2-fluorobenzyl)oxy)pyridin-2-yl)-2-fluorobenzyl)-1-(2-methoxypropyl)-1H-benzo[d]imidazole-6-carboxylic acid]	12.3	4	
COCCn1c(Cc2ccc(-c3ccnc(OCc4ccc(C#N)cc4OC)n3)c(F)c2)nc2ccc(C(=O)O)cc21 [Example 109, 2-(4-(2-((4-cyano-2-methoxybenzyl)oxy)pyrimidin-4-yl)-3-fluorobenzyl)-1-(2-methoxyethyl)-1H-benzo[d]imidazole-6-carboxylic acid]	3.38	12.3	
COCCn1c(Cc2ccc(-c3cccc(OCc4ccncc4OC)n3)c(F)c2)nc2ccc(C(=O)O)cc21 [Example 96, 2-(3-fluoro-4-(6-((3-methoxypyridin-4-yl)methoxy)pyridin-2-yl)benzyl)-1-(2-methoxyethyl)-1H-benzo[d]imidazole-6-carboxylic acid]	30.9	17.8	
N#Cc1ccc(COc2cccc(-c3ccc(Cc4nc5c(F)cc(C(=O)O)cc5n4CC4(C(F)F)CC4)cc3F)n2)c(F)c1 [Example 288, 2-(4-(6-((4-cyano-2-fluorobenzyl)oxy)pyridin-2-yl)-3-fluorobenzyl)-1-((1-(difluoromethyl)cyclopropyl)methyl)-4-fluoro-1H-benzo[d]imidazole-6-carboxylic acid]	0.76	5.08	
CS(=O)(=O)N1CC[C@@H]1Cn1c(Cc2ccc(-c3cccc(OCc4ccc(C#N)cc4F)n3)cc2F)nc2ccc(C(=O)O)cc21 [Example 888, 2-[[4-[6-[(4-cyano-2-fluoro-phenyl)methoxy]-2-pyridyl]-2-fluoro-phenyl]methyl]-3-[[(2R)-1-methylsulfonylazetidin-2-yl]methyl]benzimidazole-5-carboxylic acid]		5.83	6.01
N#Cc1ccc(COc2cccc(-c3cc(CO)c(Cc4nc5ccc(C(=O)O)cc5n4C[C@@H]4CCO4)cc3F)n2)c(F)c1 [Example 775]	0.1	3.17	
COCCn1c(Cc2cc(F)c(-c3cccc(OCc4cc(Cl)ccc4F)n3)cc2F)nc2ccc(C(=O)O)cc21 [Example 660]	50.5	4.17	
COCCC1(Cn2c(Cc3cc(F)c(-c4cccc(OCc5ccc(C#N)cc5F)n4)cc3F)nc3ccc(C(=O)O)cc32)CC1 [Example 739]	0.74	1.83	
N#Cc1ccc(COc2nc(-c3cc(F)c(Cc4nc5ccc(C(=O)O)cc5n4CCOC4CC4)cc3F)ccc2F)c(F)c1 [Example 900]	1.26	1.83	
COc1cc(Cl)ccc1COc1nccc(-c2ccc(Cc3nc4ccc(C(=O)O)cc4n3CC3(CF)CC3)cc2F)n1 [Example 75, 2-(4-(2-((4-chloro-2-methoxybenzyl)oxy)pyrimidin-4-yl)-3-fluorobenzyl)-1-((1-(fluoromethyl)cyclopropyl)methyl)-1H-benzo[d]imidazole-6-carboxylic acid]	0.6	13.8	
O=C(O)c1cc(F)c2nc(Cc3cc(F)c(-c4nc(OCc5ccc(C(F)F)cc5F)ccc4F)cc3F)n(C[C@@H]3CCO3)c2c1 [Example 769]	0.03	3.67	
COCCn1c(Cc2cc(F)c(-c3ccc(F)c(OCc4ccc(C#N)cc4F)n3)cc2F)nc2c(F)cc(C(=O)O)cc21 [Example 764]	0.76	3.17	
COCCn1c(Cc2cc(F)c(-c3cccc(OCc4ccc(C#N)cc4F)n3)cc2C)nc2ccc(C(=O)O)cc21 [Example 674]	2.73	6	
COCCn1c(Cc2ccc(-c3cccc(OCc4ccc(C#N)cc4F)n3)cc2O)nc2ccc(C(=O)O)cc21 [Example 181, 2-(4-(6-((4-cyano-2-fluorobenzyl)oxy)pyridin-2-yl)-2-hydroxybenzyl)-1-(2-methoxyethyl)-1H-benzo[d]imidazole-6-carboxylic acid]	15.5	2.83	
